# From patent US20140323522A1, “Method of Treating Cancer” (Exelixis, Inc., priority 2011, published 2014)
# What was measured:
# [1] = phase 1 clinical study, tolerability
# [2] = test system: castration-resistant prostate cancer (CRPC) with bone metastases; assay: Phase 2 trial (NCT00940225) case studies of CRPC patients with bone metastases treated with compound 1; format: in vivo, human
# Source text: All patients provided informed consent before study screening.
# [3] = test system: mature OCs; assay: in vitro osteoclast (OC) activity assay (bone resorption by mature OCs); format: cell-based, human; details: day 10
# [4] = test system: endothelial cells and tumor cells; assay: apoptosis of endothelial cells and tumor cells
# [5] = test system: Mouse KS482 cells; assay: in vitro osteoblast (OB) differentiation assay; format: cell-based; details: day 8
# [6] = test system: Mouse KS482 cells; assay: in vitro osteoblast (OB) bone-forming activity assay; format: cell-based
# [7] = test system: proteins related to the VEGF pathway (VEGF, NRP-1, HIF1α); assay: IHC and single quantum-dot labeling of ARCaPM tumors in tibia sections, VEGF pathway proteins; format: in vivo, nude mice; details: 10 mg/kg or 30 mg/kg, 7 weeks, vs vehicle
# [8] = test system: pancreatic neuroendocrine tumor; assay: murine pancreatic neuroendocrine tumor model; details: mouse, in vivo
# [9] = test system: xenograft tumor models; assay: xenograft tumor models; details: in vivo
# [10] = oral bioavailability; details: in vivo
# [11] = test system: Human CRPC ARCaPM cells; assay: ARCaPM in vivo efficacy study (intratibial xenografts); set-up: species or system nude mice
# Protocol: Micro-CT-based quantification (Scanco 40 instrument) of 5 tibiae per group with 2 measurements each were used. ([…]) indicates vehicle tibia lacking detectable tumor in the section evaluated by histology. […] Bioquant® Image Analysis software was used for the histomorphometry of H&E-stained sections. Tumor (8A) and bone area (8B) were measured in the evaluated sections by tracing their outline within an area of 1×1 mm^2 (total tissue area) near the center of the growth plate. Percentages relative to the total tissue area were calculated. […] Bioquant® Image Analysis software was used for the histomorphometry of consecutive H&E- and TRAP-stained sections. (9A) Based on TRAP stain, OC numbers were counted along the border of the trabecular bone within the same tissue area used to assess tumor and bone area (FIG. 8). The ratio of OCs per bone perimeter (OC/mm) was calculated. (9B) OBs were counted along the trabecular bone surface in the same area on the H&E-stained sections and the number of OBs per bone perimeter (0 B/mm) was calculated. ([…]) indicates vehicle-treated mice without detectable tumor in the corresponding tumor area analysis (FIG. 8A). (A) indicates compound 1-treated mice with detectable tumor in the corresponding tumor area analysis (FIG. 8A).
# [12] = test system: CD34+ cells derived from human bone marrow; assay: in vitro osteoclast (OC) differentiation assay; format: cell-based; details: day 7
# [13] = 10 mg/kg or 30 mg/kg, 7 weeks, compared to vehicle
# [14] = 10 mg/kg or 30 mg/kg, 7 weeks, relative to vehicle
smiles,measurement,setting,value
"COc1cc2nccc(Oc3ccc(NC(=O)C4(C(=O)Nc5ccc(F)cc5)CC4)cc3)c2cc1OC [Compound 1, N-(4-{[6,7-bis(methyloxy)quinolin-4-yl]oxy}phenyl)-N′-(4-fluorophenyl)cyclopropane-1,1-dicarboxamide]",most commonly observed adverse events,[1],"fatigue, diarrhea, anorexia, rash, and palmar-plantar erythrodysesthesia"
same,tolerability,[1],generally well-tolerated
same,"Hemoglobin (best response, change)","[2]; Patient 1, 100 mg dose",+1.4 g/dL
same,Pain (best response),"[2]; Patient 1, 100 mg dose",Improvement
same,Tumor response (best response),"[2]; Patient 1, 100 mg dose",−41%
same,"tALP (best response, change)","[2]; Patient 1, 100 mg dose",−77%
same,increase in hemoglobin compared with baseline,"[2]; Patient 1, Week 2",1.4 g/dL
same,CT scan response category,"[2]; Patient 1, Week 6",partial response (PR)
same,"CT scan, decrease in measurable target lesions","[2]; Patient 1, Week 6",33%
same,"bone scan, radiotracer uptake by bone metastases","[2]; Patient 1, Week 6",dramatic decrease in radiotracer uptake
same,bone lesions on bone scan,"[2]; Patient 1, Week 12",near complete resolution of bone lesions
same,decrease in target lesions,"[2]; Patient 1, Week 12, stable through Week 18",44%
same,adverse event leading to withdrawal,"[2]; Patient 1, Week 18",Grade 3 diarrhea
same,PSA level,"[2]; Patient 1, Week 18 (430 ng/mL at baseline)",93.5 ng/mL
same,serum tALP level,"[2]; Patient 1, Week 18 (689 U/L at baseline)",159 U/L
same,bone pain,"[2]; Patient 1, four weeks after start",significant reduction in bone pain
same,Bone scan (best response),"[2]; Patient 2, 100 mg dose",Improvement
same,"Hemoglobin (best response, change)","[2]; Patient 2, 100 mg dose",+1.8 g/dL
same,Pain (best response),"[2]; Patient 2, 100 mg dose",Pain-free
same,Tumor response (best response),"[2]; Patient 2, 100 mg dose",−20%
same,"tALP (best response, change)","[2]; Patient 2, 100 mg dose",−6%
same,bone pain,"[2]; Patient 2, Week 4",reduction in bone pain
same,"CT scan, decrease in target lesions","[2]; Patient 2, Week 6",13%
same,"bone scan, radiotracer uptake by bone lesions","[2]; Patient 2, Week 6",slight flair in radiotracer uptake
same,"bone scan, radiotracer uptake","[2]; Patient 2, Week 12",substantial reduction of radiotracer uptake
same,decrease in measurable disease,"[2]; Patient 2, Week 12",20%
same,increase in hemoglobin compared with baseline,"[2]; Patient 2, Week 12",1.8 g/dL
same,"Hemoglobin (best response, change)","[2]; Patient 3, 100 mg dose",+2.2 g/dL
same,"PSA (best response, change)","[2]; Patient 3, 100 mg dose",−57%
same,Pain (best response),"[2]; Patient 3, 100 mg dose",Pain-free
same,Tumor response (best response),"[2]; Patient 3, 100 mg dose",−51%
same,"tALP (best response, change)","[2]; Patient 3, 100 mg dose",−77%
same,increase in hemoglobin compared with baseline,"[2]; Patient 3, Week 2",2.2 g/dL
same,"CT scan, decrease in measurable target lesions","[2]; Patient 3, Week 6",43%
same,"bone scan, radiotracer uptake","[2]; Patient 3, Week 6",dramatic reduction in radiotracer uptake
same,bone lesions on bone scan,"[2]; Patient 3, Week 12",complete resolution of bone lesions
same,decrease in measurable disease,"[2]; Patient 3, Week 12",51%
same,PSA level,"[2]; Patient 3, Week 18 (2.4 ng/mL at screening)",1.2 ng/mL
same,serum tALP level,"[2]; Patient 3, Week 18 (869 U/L at baseline)",197 U/L
same,pain,"[2]; Patient 3, after three weeks",complete resolution of pain
same,ability of mature OCs to resorb bone (secreted CTX normalized to TRACP 5b),[3],does not affect
same,apoptosis of endothelial cells and tumor cells,[4],rapidly induces apoptosis
same,OB differentiation (cellular ALP activity),[5],biphasic effects
same,OB bone forming activity (organic and inorganic bone matrix),[6],biphasic effects
same,"IHC staining of proteins related to the VEGF pathway (VEGF, NRP-1, HIF1α) in ARCaPM tumors",[7],decreased IHC staining
same,overall survival,[8],substantially improves
same,tumor invasiveness and metastasis,[8],significantly reduces
same,tumor growth in xenograft tumor models,[9],causes tumor regression
same,oral bioavailability,[10],orally bioavailable
same,"osteoblasts (OBs) along the trabecular bone, tibia sections",[11]; [13],increased OBs
same,"osteoclasts (OCs) along the trabecular bone, tibia sections",[11]; [13],no change in OCs
same,"bone mineral density, micro-CT",[11]; [14],preserves
same,"bone volume/tissue volume (BV/TV), micro-CT",[11]; [14],preserves
same,"progression of CRPC ARCaPM tumor xenografts in bone (X-ray, micro-CT of tibiae)","[11]; 30 mg/kg, 7 weeks of treatment, vs vehicle",blocks progression
same,progression of CRPC ARCaPM tumor xenografts in bone (H&E stain of tibia sections),"[11]; 7 weeks of treatment, vs vehicle",blocks progression
same,OC differentiation (secreted TRACP 5b levels),[12],inhibits in vitro osteoclast (OC) differentiation in a dose-dependent manner
